Assay results: patent US8309768B2, “FTY720-derived anticancer agents” (The Ohio State University Research Foundation, priority 2010, dated 2012)

Tested on: orthotopic Hep3B-luc tumors
Assay: Orthotopic Hep3B-luc xenograft tumor model
Format: in vivo, athymic nude mice
Design: dose or concentration left out as unconfirmed
Conditions: end of treatment (42 days)
Source text: Orthotopic tumors were established by direct intrahepatic injection of luciferase-expressing Hep3B (Hep3B-luc) cells as described. Omar et al., Mol Pharmacol, 76, 957-968 (2009). The establishment and growth of tumors were monitored by bioluminescent imaging using the IVIS™ imaging system (Xenogen, Alameda, Calif.). […] All animal use described in this manuscript was done in accordance with protocols approved by The Ohio State University Institutional Animal Care and Use Committee.

## CCC[C@@](N)(CO)CCc1ccc(OCCCCCC(C)C)cc1 [OSU-2S, (S)-2-amino-2-(4-[(6-methylheptyl)-oxy]phenethyl)pentan-1-ol]
  reduction in bioluminescent intensity: 80%
